Here are results for 25 compounds from patent US20240360116A1, “BICYCLIC DERIVATIVES” (ELANCO TIERGESUNDHEIT AG, priority 2020, published 2024).

The target in one experiment is D. immitis Slo-1 (Dirofilaria immitis, UniProt I0DFK5). Briefly: In Vitro Assay 2: D. immitis Slo-1 recombinant CHO cell line, membrane potential. Type of experiment: cell-based. The conditions noted are these: EC50, CHO cells expressing D. immitis Slo-1, voltage sensitive dye, FLIPR Tetra, 70 mM KCl.
Experiment [1] has as its system Adult Nippostrongylus brasiliensis. Briefly: In Vitro Assay 5: Nippostrongylus brasiliensis (NIPOBR), acetylcholine esterase readout. The conditions noted are these: adult worms, tested at 10, 1 and 0.1 ppm, vs negative control. How it is done:
Adult Nippostrongylus brasiliensis were washed with saline buffer containing 100 U/ml penicillin, 0.1 mg/ml streptomycin and 2.5 μg/ml amphotericin B. Test compounds were dissolved in DMSO and worms were incubated in medium in a final concentration of 10 μg/ml (10 ppm), 1 μg/ml (1 ppm) and 0.1 μg/ml (0.1 ppm) respectively. An aliquot of the medium was used to determine the acetylcholine esterase activity in comparison to a negative control. The principle of measuring acetylcholine esterase as readout for anthelmintic activity was described in Rapson et al (1986) and Rapson et al (1987).
Based on the evaluation of a wide concentration range, concentration-response curves as well as EC50-values were calculated.

Experiment [2] has as its system Dirofilaria immitis third-stage larvae. Briefly: In Vitro Assay 4: Dirofilaria immitis (DIROIM L4). The note with it: 72 h, read-out: EC50 (reduction of motility).
In experiment [3] the test system is Dirofilaria immitis microfilariae. Briefly: In Vitro Assay 3: Dirofilaria immitis microfilariae (DIROIM L1). The note with it: 72 h, read-out: EC50 (reduction of motility).

“And” between values parts separate entries of the source, which are not always exact repeats. Equal entries are not always repeated.

D. immitis Slo-1, sequence (I0DFK5 1-1119): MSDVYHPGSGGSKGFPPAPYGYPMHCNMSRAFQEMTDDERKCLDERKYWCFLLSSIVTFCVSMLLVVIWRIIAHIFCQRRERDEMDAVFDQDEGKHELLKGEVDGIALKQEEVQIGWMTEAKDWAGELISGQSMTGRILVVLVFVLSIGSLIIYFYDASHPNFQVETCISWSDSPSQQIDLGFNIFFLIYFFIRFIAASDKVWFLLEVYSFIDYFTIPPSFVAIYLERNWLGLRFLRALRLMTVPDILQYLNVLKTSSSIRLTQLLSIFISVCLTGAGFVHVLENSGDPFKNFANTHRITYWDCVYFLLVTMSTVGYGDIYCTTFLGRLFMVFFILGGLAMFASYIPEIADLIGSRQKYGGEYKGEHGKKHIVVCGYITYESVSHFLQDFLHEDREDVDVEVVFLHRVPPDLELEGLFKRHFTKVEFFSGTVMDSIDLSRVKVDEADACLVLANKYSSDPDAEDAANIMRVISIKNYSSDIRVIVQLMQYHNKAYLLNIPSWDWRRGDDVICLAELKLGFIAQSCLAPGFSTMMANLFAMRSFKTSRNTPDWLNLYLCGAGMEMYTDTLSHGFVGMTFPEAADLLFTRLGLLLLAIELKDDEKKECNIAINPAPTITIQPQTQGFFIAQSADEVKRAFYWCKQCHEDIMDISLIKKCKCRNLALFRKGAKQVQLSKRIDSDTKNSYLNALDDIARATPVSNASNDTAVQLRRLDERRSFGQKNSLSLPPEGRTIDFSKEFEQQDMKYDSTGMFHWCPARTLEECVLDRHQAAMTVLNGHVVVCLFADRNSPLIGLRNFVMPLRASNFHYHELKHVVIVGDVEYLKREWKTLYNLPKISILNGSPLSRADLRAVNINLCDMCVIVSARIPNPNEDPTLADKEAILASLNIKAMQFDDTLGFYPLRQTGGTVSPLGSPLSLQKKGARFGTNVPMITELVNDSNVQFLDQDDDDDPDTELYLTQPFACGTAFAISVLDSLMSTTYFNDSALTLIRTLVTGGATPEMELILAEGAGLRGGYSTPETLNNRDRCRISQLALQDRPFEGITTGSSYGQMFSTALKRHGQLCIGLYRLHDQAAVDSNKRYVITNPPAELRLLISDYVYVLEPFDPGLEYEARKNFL

With `O=C(NN1C(=O)COc2ccccc21)c1cnc2c(-c3cc(F)cc(F)c3F)cccc2c1N1CCOCC1` [Example 5.109, 4-morpholino-N-(3-oxo-2,3-dihydro-4H-benzo[b][1,4]oxazin-4-yl)-8-(2,3,5-trifluorophenyl)quinoline-3-carboxamide], on D. immitis Slo-1, the EC50 (as a rule, the concentration needed to bring the measured effect to its halfway point) fell in the range of 100 to 1000 nM.

Turning to `O=C(NN1CCOc2ccc(F)cc21)c1cnc2c(-c3cc(F)cc(F)c3F)c(F)ccc2c1N1CC(F)C1` [Example 5.98, 7-fluoro-N-(6-fluoro-2,3-dihydro-4H-benzo[b][1,4]oxazin-4-yl)-4-(3-fluoroazetidin-1-yl)-8-(2,3,5-trifluorophenyl)quinoline-3-carboxamide], on D. immitis Slo-1, the concentration giving a half-maximal response (EC50) lay within 100 to 1000 nM.

As for `O=C(NN1CCOc2ccccc21)c1cnc2c(-c3cc(F)cc(F)c3F)c(F)ccc2c1C1CC(F)C1` (stereo not drawn) [Example 5.101, N-(2,3-dihydro-4H-benzo[b][1,4]oxazin-4-yl)-7-fluoro-4-(3-fluorocyclobutyl)-8-(2,3,5-trifluorophenyl)quinoline-3-carboxamide], the concentration giving a half-maximal response (EC50) on D. immitis Slo-1 was less than 100 nM.

As for `O=C(NN1CCOc2ccccc21)c1cnc2c(-c3cc(F)cc(F)c3F)c(F)ccc2c1C1CSC1` [Example 5.85, N-(2,3-dihydro-1,4-benzoxazin-4-yl)-7-fluoro-4-(thietan-3-yl)-8-(2,3,5-trifluorophenyl)quinoline-3-carboxamide], the EC50 on D. immitis Slo-1 was less than 100 nM; in experiment [1], less than 0.1 µg/mL.

As to `O=C(NN1CCOc2ccccc21)c1cnc2c(-c3cc(F)cc(F)c3F)c(F)ccc2c1N1C[C@@H](F)[C@@H](F)C1` (single isomer, unassigned) [Example 5.89, 4-(3,4-difluoropyrrolidin-1-yl)-N-(2,3-dihydro-1,4-benzoxazin-4-yl)-7-fluoro-8-(2,3,5-trifluorophenyl)quinoline-3-carboxamide], the values for the concentration for a half-maximal effect (EC50) (on D. immitis Slo-1; in experiment [2]; in experiment [1]) were less than 100 nM, less than 0.1 µg/mL and less than 0.1 µg/mL, respectively.

For `N#Cc1c(Cl)cc(C(F)(F)F)cc1-c1cccc2c(N3CCOCC3)c(C(=O)NN3CCOc4ccccc43)cnc12` [Example 5.76, 8-[3-chloro-2-cyano-5-(trifluoromethyl)phenyl]-N-(2,3-dihydro-1,4-benzoxazin-4-yl)-4-morpholino-quinoline-3-carboxamide], the EC50 on D. immitis Slo-1 lay within 100 to 1000 nM.

As for `O=C(NN1CCOc2ccccc21)c1cnc2c(-c3cc(Cl)cc(F)c3F)c(F)ccc2c1N1CC(F)C1` [Example 5.79, 8-(5-chloro-2,3-difluoro-phenyl)-N-(2,3-dihydro-1,4-benzoxazin-4-yl)-7-fluoro-4-(3-fluoroazetidin-1-yl)quinoline-3-carboxamide], the EC50 at D. immitis Slo-1 was 100 to 1000 nM; in experiment [1], less than 0.1 µg/mL.

For `O=C(NN1CCOc2ccccc21)c1cnc2c(-c3cc(F)cc(F)c3F)c(F)ccc2c1N1C[C@@H](F)[C@H](F)C1` [Example 5.92, 4-[(3R,4R)-3,4-difluoropyrrolidin-1-yl]-N-(2,3-dihydro-1,4-benzoxazin-4-yl)-7-fluoro-8-(2,3,5-trifluorophenyl)quinoline-3-carboxamide], the EC50 in experiment [2] and in experiment [1] was less than 0.1 µg/mL throughout.

For `O=C(NN1CCOc2ccccc21)c1cnc2c(-c3cc(C(F)(F)F)cc(F)c3F)c(F)ccc2c1C1CS(=O)(=O)C1` [Example 5.107, 8-(2,3-difluoro-5-(trifluoromethyl)phenyl)-N-(2,3-dihydro-4H-benzo[b][1,4]oxazin-4-yl)-4-(1,1-dioxidothietan-3-yl)-7-fluoroquinoline-3-carboxamide], the concentration for a half-maximal effect (EC50) at D. immitis Slo-1 is 100 to 1000 nM; in experiment [1], less than 0.1 µg/mL.

In the case of `O=C(NN1CCOc2ccccc21)c1cnc2c(-c3cc(F)cc(F)c3F)c(F)ccc2c1C1CS(=O)(=O)C1` [Example 5.86, N-(2,3-dihydro-1,4-benzoxazin-4-yl)-4-(1,1-dioxothietan-3-yl)-7-fluoro-8-(2,3,5-trifluorophenyl)quinoline-3-carboxamide], the half-maximal effective concentration (EC50) at D. immitis Slo-1 is 100 to 1000 nM.

On to `O=C(NN1CCOc2ccccc21)c1cnc2c(-c3cc(F)cc(F)c3F)c(F)c(F)cc2c1N1CCOCC1` [Example 5.105, N-(2,3-dihydro-4H-benzo[b][1,4]oxazin-4-yl)-6,7-difluoro-4-morpholino-8-(2,3,5-trifluorophenyl)quinoline-3-carboxamide], for which the EC50 at D. immitis Slo-1 is less than 100 nM.

With `O=C(NN1CCOc2ccccc21)c1cnc2c(-c3cc(C(F)(F)F)cc(F)c3F)c(F)ccc2c1N1CCOCC1` [Example 5.94, 8-(2,3-difluoro-5-(trifluoromethyl)phenyl)-N-(2,3-dihydro-4H-benzo[b][1,4]oxazin-4-yl)-7-fluoro-4-morpholinoquinoline-3-carboxamide], at D. immitis Slo-1, the EC50 was less than 100 nM.

Take `N#Cc1c(F)cc(C(F)(F)F)cc1-c1cccc2c(N3CCOCC3)c(C(=O)NN3CCOc4ccccc43)cnc12` [Example 5.81, 8-[2-cyano-3-fluoro-5-(trifluoromethyl)phenyl]-N-(2,3-dihydro-1,4-benzoxazin-4-yl)-4-morpholino-quinoline-3-carboxamide]: the EC50 on D. immitis Slo-1 lay within 100 to 1000 nM.

In experiment [1], `CN(c1c(C(=O)NN2CCOc3ccccc32)cnc2c(-c3cc(F)cc(F)c3F)c(F)ccc12)C1CC(F)C1` (stereo not drawn) [Example 5.87, N-(2,3-dihydro-1,4-benzoxazin-4-yl)-7-fluoro-4-[(3-fluorocyclobutyl)-methyl-amino]-8-(2,3,5-trifluorophenyl)quinoline-3-carboxamide] had a half-maximal effective concentration (EC50) of less than 0.1 µg/mL.

`C=C(C)c1c(C(=O)NN2CCOc3ccc(F)cc32)cnc2c(-c3cc(F)cc(F)c3F)c(F)ccc12` [Example 5.99, 7-fluoro-N-(6-fluoro-2,3-dihydro-4H-benzo[b][1,4]oxazin-4-yl)-4-(prop-1-en-2-yl)-8-(2,3,5-trifluorophenyl)quinoline-3-carboxamide]: the EC50 on D. immitis Slo-1 fell in the range of 100 to 1000 nM.

Regarding `O=C1CC(c2c(C(=O)NN3CCOc4ccccc43)cnc3c(-c4cc(F)cc(F)c4F)c(F)ccc23)C1` [Example 5.82, N-(2,3-dihydro-1,4-benzoxazin-4-yl)-7-fluoro-4-(3-oxocyclobutyl)-8-(2,3,5-trifluorophenyl)quinoline-3-carboxamide], the EC50 is less than 100 nM on D. immitis Slo-1, less than 0.1 µg/mL in experiment [3], less than 0.1 µg/mL in experiment [2] and less than 0.1 µg/mL in experiment [1].

With `COC1CN(c2c(C(=O)NN3CCOc4ccccc43)cnc3c(-c4cc(F)cc(F)c4F)c(F)ccc23)C1` [Example 5.84, N-(2,3-dihydro-1,4-benzoxazin-4-yl)-7-fluoro-4-(3-methoxyazetidin-1-yl)-8-(2,3,5-trifluorophenyl)quinoline-3-carboxamide], at D. immitis Slo-1, the EC50 was in the range of 100 to 1000 nM.

Turning to `O=C(NN1CCOc2ccccc21)c1cnc2c(-c3cc(F)cc(F)c3F)c(F)ccc2c1C1CC(F)(F)C1` [Example 5.95, 4-(3,3-difluorocyclobutyl)-N-(2,3-dihydro-4H-benzo[b][1,4]oxazin-4-yl)-7-fluoro-8-(2,3,5-trifluorophenyl)quinoline-3-carboxamide], the EC50 at D. immitis Slo-1 is less than 100 nM.

With `O=C(NN1CCOc2ccccc21)c1cnc2c(-c3cc(C(F)(F)F)cc(F)c3F)c(F)ccc2c1N1CC(F)C1` [Example 5.96, 8-(2,3-difluoro-5-(trifluoromethyl)phenyl)-N-(2,3-dihydro-4H-benzo[b][1,4]oxazin-4-yl)-7-fluoro-4-(3-fluoroazetidin-1-yl)quinoline-3-carboxamide], on D. immitis Slo-1, the EC50 lay in the range of 100 to 1000 nM.

For `Nc1c(Cl)cc(C(F)(F)F)cc1-c1cccc2c(N3CCOCC3)c(C(=O)NN3CCOc4ccccc43)cnc12` [Example 5.77, 8-[2-amino-3-chloro-5-(trifluoromethyl)phenyl]-N-(2,3-dihydro-1,4-benzoxazin-4-yl)-4-morpholino-quinoline-3-carboxamide], the EC50 at D. immitis Slo-1 is < 100 nM and 100 to 1000 nM.

Regarding `O=C(NN1CCOc2ccc(F)cc21)c1cnc2c(-c3cc(F)cc(F)c3F)c(F)ccc2c1C1CCOC1` (stereo not drawn) [Example 5.97, 7-fluoro-N-(6-fluoro-2,3-dihydro-4H-benzo[b][1,4]oxazin-4-yl)-4-(tetrahydrofuran-3-yl)-8-(2,3,5-trifluorophenyl)quinoline-3-carboxamide], the EC50 at D. immitis Slo-1 was less than 100 nM.

As for `O=C(NN1CCOc2ccccc21)c1cnc2c(-c3cc(C(F)(F)F)cc(F)c3Br)cccc2c1N1CCOCC1` [Example 5.80, 8-[2-bromo-3-fluoro-5-(trifluoromethyl)phenyl]-N-(2,3-dihydro-1,4-benzoxazin-4-yl)-4-morpholino-quinoline-3-carboxamide], the values for the concentration for a half-maximal effect (EC50) (on D. immitis Slo-1; in experiment [1]) were less than 100 nM and less than 0.1 µg/mL, respectively.

Turning to `O=C(NN1CCOc2ccc(F)cc21)c1cnc2c(-c3cc(F)cc(F)c3F)c(F)ccc2c1C1CS(=O)(=O)C1` [Example 5.106, 4-(1,1-dioxidothietan-3-yl)-7-fluoro-N-(6-fluoro-2,3-dihydro-4H-benzo[b][1,4]oxazin-4-yl)-8-(2,3,5-trifluorophenyl)quinoline-3-carboxamide], the concentration giving a half-maximal response (EC50) on D. immitis Slo-1 was 100 to 1000 nM; in experiment [1], less than 0.1 µg/mL.

On to `O=C(NN1CCOc2ccccc21)c1cnc2c(-c3cc(F)cc(S(F)(F)(F)(F)F)c3)c(F)ccc2c1C1CCOC1` (stereo not drawn) [Example 5.102, N-(2,3-dihydro-4H-benzo[b][1,4]oxazin-4-yl)-7-fluoro-8-(3-fluoro-5-(pentafluoro-sulfanyl)phenyl)-4-(tetrahydrofuran-3-yl)quinoline-3-carboxamide], for which the concentration giving a half-maximal response (EC50) on D. immitis Slo-1 was less than 100 nM.

As for `O=C(NN1CCOc2ccccc21)c1cnc2c(-c3cc(F)cc(F)c3F)c(F)ccc2c1N1CC(F)C1` [Example 5.78, N-(2,3-dihydro-1,4-benzoxazin-4-yl)-7-fluoro-4-(3-fluoroazetidin-1-yl)-8-(2,3,5-trifluorophenyl)quinoline-3-carboxamide], the concentration giving a half-maximal response (EC50) at D. immitis Slo-1 was less than 100 nM.
